These results are taken from patent US20140329863A1 (priority 2011, published 2014).

Structures are written as SMILES. ≈ marks a conversion by molar mass, not a printed value. Where two headings read alike, the source gives them in different places. A value given as a limit tells only on which side of the number the result lay.

A short description of data set [1]: Hepatic microsomal stability, rat.
For another data set, the system named is MDCK-MDR1 cells. As to the kind of experiment: Permeability in MDCK-MDR1 cells. The conditions noted are these: MDR1-MDCK cell monolayers; for Permeability PA→B: apical to basal; for Permeability PB→A: basal to apical.
For data set [2], the system named is PrP^Sc in dividing ScN2a-cl3 cells. In kind it is cell-based, mouse. Also on record: Dividing ELISA pEC50 (μM) 1st Expt. / Dividing ELISA pEC50 (μM) 2nd Expt. / Dividing ELISA pEC50 (μM) 3rd Expt. / Dividing ELISA pEC50 (μM) Mean: unit not given here.
In data set [3] the test system is PrP^Sc in nondividing ScN2a-cl3 cells. In kind it is cell-based, mouse. The conditions noted are these: read-out: Non-Dividing ELISA EC50 (μM) Mean (n = 3); ScN2a-c13 non-dividing cells; mean n = 3. (ELISA stands for enzyme-linked immunosorbent assay.)
The conditions of data set [4]: […].
Data set [5] deals with MDCK-MDR^1 cells (P-glycoprotein). As to the kind of experiment: Bidirectional MDCK-MDR1 cell permeability. In kind it is in vitro ADME, canine. The protocol: MDCK-MDR^1 cells were grown to confluence for 5-10 days on 1-μm filters in 24-well plates {Hilgers, 1990}. Aliquots of DMSO stocks were diluted into Hank's balanced salt solution (HBSS), pH 7.4, containing […] to give 10-μM solute concentration. The solute containing donor solutions were transferred to either the apical or basolateral chamber of the permeability diffusion apparatus. Receiver solutions consisted of HBSS (pH 7.4) containing 25 mM HEPES+0.05% PS80. Sequential samples of transported solute were taken at 20-min intervals using an automated liquid handling platform. The concentration of transported solute during each sampling interval was determined by HPLC/UV/MS. Permeability coefficients were calculated for each sampling interval. The average and standard deviation from the intervals are reported. Mass balance in the system was ascertained by comparing the sum of total transported solute and remaining donor solute with the starting mass of solute and is expressed as a percentage of donor solute at time zero. […] In the event of mass balance less than 70%, the cell monolayers were extracted with ACN and analyzed for the solute of interest. Determinations were conducted in duplicate.

The next data set relates to N2a-cl3 cells. In words: cells. As to conditions: Mus musculus, N2a-cl3, read-out: Dividing Calcein EC50 (μM) Mean (n = 3).
In another data set the test system is PrP^C in T98G cells. In kind it is cell-based, human. The conditions noted are these: read-out: EC50 (μM) ELISA potency, PrP^C in T98G cells.
The subject of the next data set is PrP^C in N2a-c13 cells. In kind it is cell-based, mouse. As to conditions: read-out: EC50 (μM) ELISA in N2a-cl3 cells (value in parentheses).
Data set [6] can be described thus: Hepatic microsomal stability, human. As to conditions: for half-life at 1 μM: human, pH 7.4.
Data set [7] is described as follows: Hepatic microsomal stability, mouse. The conditions noted are these: for half-life at 1 μM: pH 7.4.
A short description of the next data set: in vitro. The conditions noted are these: dog, MDCK-MDR1.
The test system of another data set is P-gp (MDR1). In words: in vitro. As to conditions: dog, MDCK-MDR1.
Another data set has as its system ScN2a-c13 cells. In words: cells. It is filed as cell-based. As to conditions: Mus musculus; N=3; read-out: EC50 by calcein for cell viability.
Data set [8] can be described thus: Single-dose pharmacokinetics in FVB mice (oral gavage, IV).
Data set [9] can be described thus: Toleration studies in mice.
Data set [10] has as its system PrP^Sc in dividing ScN2a-c13 cells. As to conditions: read-out: EC50 (ELISA), reduction of PrP^Sc load; dividing ScN2a-c13 cells.
Data set [11] is described as follows: Multidose (three-day) pharmacokinetics in liquid diet in FVB mice. The conditions noted are these: FVB, mouse, in vivo, three-day dosing in liquid diet.
The mark [12] stands for this setting: ScN2a-cl3 dividing cells, 1st determination.
[13] abbreviates: ScN2a-cl3 dividing cells, 2nd determination.
The mark [14] stands for this setting: ScN2a-cl3 dividing cells, 3rd determination.
Setting [15] is: ScN2a-cl3 dividing cells, mean of three determinations.
[16] abbreviates: read-out: Antiprion activity ScN2a-cl3 EC50, ScN2a-cl3 cells.
Where [17] appears, read: read-out: Dividing ELISA EC50 (μM) 1st Expt., ScN2a-cl3 dividing cells, 1st determination.
The mark [18] stands for this setting: read-out: Dividing ELISA EC50 (μM) 2nd Expt., ScN2a-cl3 dividing cells, 2nd determination.
The mark [19] stands for this setting: read-out: Dividing ELISA EC50 (μM) 3rd Expt., ScN2a-cl3 dividing cells, 3rd determination.
Setting [20] is: read-out: Dividing ELISA EC50 (μM) Mean, ScN2a-cl3 dividing cells, mean of three determinations.

For `COc1ccc(-c2csc(Nc3ccc4ccccc4n3)n2)cc1OC` [compound 18, [4-(3,4-dimethoxyphenyl)-thiazol-2-yl]-quinolin-2-yl-amine], the “Microsome stability T1/2” value in data set [1] ([…]) is on record as 69 min. Also, in the data set on MDCK-MDR1 cells, the “Permeability PA→B” value is reported as 9.2 10^−6 cm/sec. Also, the “Permeability PB→A” value with MDCK-MDR1 cells is 8.9 10^−6 cm/sec. The “Dividing ELISA pEC50 (μM) 1st Expt.” value in data set [2] (setting [12]) came out at 6.31. Further, the “Dividing ELISA pEC50 (μM) 2nd Expt.” value in [2] (setting [13]) is listed as 6.47. In addition, in data set [2] (setting [14]), the “Dividing ELISA pEC50 (μM) 3rd Expt.” value came out at 6.34. Besides, the “Dividing ELISA pEC50 (μM) Mean” value in data set [2] (setting [15]) turned out to be 6.38. The EC50 (commonly the concentration that produces a half-maximal response) is 0.43 µM in data set [2] (setting [16]); 0.486 µM in data set [2] (setting [17]); 0.34 µM in data set [2] (setting [18]); 0.453 µM in data set [2] (setting [19]); 0.426 µM in data set [2] (setting [20]); > 32 µM in data set [3]. For the same compound, the EC50 in the data set with N2a-cl3 cells is > 32 µM. Moreover, the “metabolic stability (in words)” value in data set [4] was “excellent stability”. In addition, the “P-gp substrate status, absorptive vs secretory permeability” value in data set [5] is given as “greater permeability in the absorptive direction”.

`CCOC(=O)c1[nH]c2c(c1C)C(=O)CC(c1ccco1)C2` (stereo not shown) [IND87564]: the values for the EC50 with PrP^C in T98G cells and with PrP^C in N2a-c13 cells were 0.25 µM and 1.12 µM, respectively.

On to `COc1ccc(-c2csc(Nc3ccc(C(F)(F)F)cn3)n2)cc1OC` [compound 12, [4-(3,4-dimethoxyphenyl)-thiazol-2-yl]-(5-trifluoromethylpyridin-2-yl)-amine], for which the “Microsome stability T1/2” value in data set [1] ([…]) was determined as 150 min. The “Permeability PA→B” value with MDCK-MDR1 cells was 9.4 10^−6 cm/sec. Further, in the data set on MDCK-MDR1 cells, the “Permeability PB→A” value was 8.7 10^−6 cm/sec. Besides, the “Dividing ELISA pEC50 (μM) 1st Expt.” value in [2] (setting [12]) came to 5.53. For the same compound, in data set [2] (setting [13]), the “Dividing ELISA pEC50 (μM) 2nd Expt.” value is 5.69. Besides, the “Dividing ELISA pEC50 (μM) 3rd Expt.” value in data set [2] (setting [14]) is recorded as 5.58. Besides, the “Dividing ELISA pEC50 (μM) Mean” value in [2] (setting [15]) was 5.60. The EC50 is 2.53 µM in data set [2] (setting [16]); 2.93 µM in data set [2] (setting [17]); 2.05 µM in data set [2] (setting [18]); 2.62 µM in data set [2] (setting [19]); 2.53 µM in [2] (setting [20]); > 32 µM in [3]. In addition, the EC50 in the data set with N2a-cl3 cells was > 32 µM. The “metabolic stability (in words)” value in data set [4] is reported as “excellent stability”. Also, in data set [5], the “P-gp substrate status, absorptive vs secretory permeability” value is “greater permeability in the absorptive direction”.

With `NC(=O)c1ccccc1NC(=O)c1cccnc1N1CCCCC1` [IND87406], the values for the EC50 in the data set on PrP^C in T98G cells and with PrP^C in N2a-c13 cells were 1.12 µM and 3.11 µM, respectively. For the same compound, the “Hepatic Extraction Ratio Human” value in data set [6] (human liver microsomes, predicted hepatic extraction) is given as 0.65. In addition, the half-life – broadly, the time in which the quantity being followed falls by half – at 1 μM came to 37.1 min in [6] (human liver microsomes) and 6.35 min in data set [7] (mouse, mouse liver microsomes). In data set [7] (mouse liver microsomes, predicted hepatic extraction), the “Hepatic Extraction Ratio Mouse” value was 0.91.

With `Cc1cccc(Nc2nc(-c3cc4ccccc4o3)cs2)n1` [IND22, (4-Benzofuran-2-yl-thiazol-2-yl)-(6-methyl-pyridin-2-yl)-amine], the Papp A→B (usually the apparent permeability from the apical to the basolateral side of a cell layer) in the data set “in vitro” worked out at 9.5 ×10⁻⁶ cm/s. For the same compound, in “in vitro”, the Papp B→A (commonly the apparent permeability from the basolateral to the apical side of a cell layer) was 8.4 ×10⁻⁶ cm/s. In addition, the efflux ratio (usually the permeability from basolateral to apical divided by that in the opposite direction, in the common usage) with P-gp (MDR1) is 0.9. In addition, the half-life at 1 μM in data set [1] (Sprague-Dawley, rat, […], pH 7.4) is > 60 min; in data set [6] (human liver microsomes), > 60 min; in [6] (liver microsomes), > 60 min; in [7] (CD-1, mouse, liver microsomes) it was 49 min; in data set [7] (CD-1, mouse, mouse liver microsomes) it was 49 min. In [1] ([…], 60-min incubation), the “% remaining after a 60-min incubation, Rat” value is 64%. Moreover, in data set [1] (rat microsomes), the “Hepatic Extraction Ratio Rat” value was 0.4. The EC50 with ScN2a-c13 cells is > 10 µM; in [10] it was 1.46 µM; in data set [2] (AMT analogs tested for potency), 1.46 µM; in data set [2] (Table 29, 2-AMT analogs tested for potency, usually n = 3 or more), 1.46 µM. Besides, in [8] (female, FVB, mouse, brain and plasma, po, 10 mg/kg), the Kp (as a rule, tissue or fluid exposure divided by exposure in the circulation) was 0.5. Moreover, in data set [8] (female, FVB, mouse, plasma, po, 10 mg/kg), the bioavailability (commonly the share of a dose that reaches the circulation, judged against a reference dose that is usually intravenous) amounted to 46%. Moreover, the “Brain exposure (AUClast) ranking” value in data set [8] (single oral dose, FVB mice, brain) was “highest AUC values in brain”. In addition, the Toleration entry in data set [9] (210 mg/kg/day for 14 days, mice) was “well tolerated”. Also, in [9] (long-term dosing in mice), the “Earliest deaths in treated mice” value is listed as 59 days. For the same compound, the “% remaining after a 60-min incubation, Human” value in data set [6] (human liver microsomes, 60-min incubation) was determined as 99%. In addition, the “Hepatic Extraction Ratio Mouse” value in data set [7] (mouse) and in [7] (mouse microsomes) was 0.7 each time. The “% remaining after a 60-min incubation, Mouse” value in [7] (mouse liver microsomes, 60-min incubation) was 40%. Besides, the solubility (in general, the dissolved amount per volume that the medium holds) was 59 µM (≈ 18.1 µg/mL) in the data set “physchem” (FaSSIF); 20 µM (≈ 6.15 µg/mL) in “physchem” (cell culture media, plasma or biological fluid); 12 µM (≈ 3.69 µg/mL) in the data set “physchem” (pH 2 (HCl) buffer, pH 2, simulated gastric fluid); < 1 µM in “physchem” (pH 7.4 (phosphate) buffer, pH 7.4, aqueous buffer). The “solubility in FaSSIF (in words)” value (fasted-state simulated intestinal fluid) was “higher solubility”. The “solubility at pH 2.0 (in words)” value (pH 2 (HCl) buffer) was “higher solubility”. Further, the concentration at 3 days turned out to be 1310 ± 390 nM in data set [11] (40 mg/kg, Brain Concentration (Css), brain); 1490 ± 150 nM in [11] (40 mg/kg, Plasma Concentration (Css), plasma); 2700 ± 520 nM in data set [11] (80 mg/kg, Brain Concentration (Css), brain); 2140 ± 580 nM in [11] (80 mg/kg, Plasma Concentration (Css), plasma); 3740 ± 410 nM in data set [11] (130 mg/kg, Brain Concentration (Css), brain); 2500 ± 670 nM in [11] (130 mg/kg, Plasma Concentration (Css), plasma). Also, the concentration at 3 days in data set [11] (210 mg/kg, Brain Concentration (Css), brain) came to 3230 ± 2620 nM; in data set [11] (210 mg/kg, Plasma Concentration (Css), plasma) it was 1980 ± 1240 nM.

Take `COc1cc(OC)cc(C(=O)Nc2ccc(I)cn2)c1` [IND85671]: the EC50 came out at 1.1 µM in the data set on PrP^C in T98G cells and 0.863 µM in the data set on PrP^C in N2a-c13 cells.
